Experiment: Dissolution of GGA patch (HPLC refractive index detector)
Type: physicochemical
Conditions: 3.2 cm×3 cm patch, 10 mg GGA; 24 hour time point; acetonitrile as the media
Method: The assembly was then clipped to two pins to sink the membrane-patch assembly to the bottom of the vessel and remains at the fixed position.
Two chromatograms (one standard of 0.05 mg/mL and one sample taken at 24 hour time point) in FIGS. 1A and 1B illustrate the dissolution results. Nearly all GGA in the membrane was released according to this specific dissolution setting (i.e., acetonitrile as the media).

For `CC(=O)CC/C=C(\C)CC/C=C(\C)CC/C=C(\C)CCC=C(C)C` [GGA, Geranylgeranylacetone], the “GGA released from patch (dissolution)” value was “Nearly all”.

— US20130273138A1, “TRANSDERMAL FORMULATIONS OF GERANYLGERANYLACETONE” (COYOTE PHARMACEUTICALS, INC., priority 2012, published 2013)
